This note sets out measurements from the SangsterLogP compilation.

As usually defined, the logP is the decadic logarithm of the partition coefficient of the neutral form, usually between octanol and water.

One data set in a line: method code SF-AQ, from DOI: 10.1016/0003-9861(68)90547-x, PMID: 5677592.
Molecule `OC[C@H]1O[C@@H](Oc2ccc(Cl)cc2)[C@H](O)[C@@H](O)[C@@H]1O` returned a logP of 0.26.

The nature of a further data set: method code SF-CR, from DOI: 10.1016/0003-9861(68)90547-x, PMID: 5677592.
In turn, `CC(C)(C)c1cc(OC2OC(CO)C(O)C(O)C2O)cc(C(C)(C)C)c1` (stereo unspecified) had a logP of 2.73.

The nature of another data set: method code SF-CR+AS, from DOI: 10.1016/0003-9861(68)90547-x, PMID: 5677592.
In the case of `O=[N+]([O-])c1ccccc1O[C@@H]1O[C@H](CO)[C@@H](O)[C@H](O)[C@H]1O`, the logP was -0.78.
On to `COc1ccc(O[C@@H]2O[C@H](CO)[C@@H](O)[C@H](O)[C@H]2O)cc1`, for which the logP is -0.73.
As for `OC[C@H]1O[C@@H](Oc2ccc(O)cc2)[C@H](O)[C@@H](O)[C@@H]1O`, the logP was -1.35.
The same measure, in the same setting: as for `OC[C@H]1O[C@@H](Oc2ccc3ccccc3c2)[C@H](O)[C@@H](O)[C@@H]1O`, the figure is 0.76; as for `OC[C@H]1O[C@@H](Oc2cccc(C(F)(F)F)c2)[C@H](O)[C@@H](O)[C@@H]1O`, 0.49; as for `Nc1ccccc1O[C@@H]1O[C@H](CO)[C@@H](O)[C@H](O)[C@H]1O`, -1.23.
Still for that read-out and setting: to `OC[C@H]1O[C@@H](Oc2ccc(I)cc2)[C@H](O)[C@@H](O)[C@@H]1O` belongs 0.75.
As to `CCc1cccc(O[C@@H]2O[C@H](CO)[C@@H](O)[C@H](O)[C@H]2O)c1`, the logP was 0.31.
On the same count and under the same terms, to `Cc1cc(C)cc(O[C@@H]2O[C@H](CO)[C@@H](O)[C@H](O)[C@H]2O)c1` belongs 0.26.
The molecule `OC[C@H]1O[C@@H](OC2CCCCC2)[C@H](O)[C@@H](O)[C@@H]1O` came in with a logP of -0.63.
Molecule `Nc1ccc(O[C@@H]2O[C@H](CO)[C@@H](O)[C@H](O)[C@H]2O)cc1` returned a logP of -2.67.
The same measure, in the same setting: as for `CC(C)c1cccc(O[C@@H]2O[C@H](CO)[C@H](O)[C@H](O)[C@H]2O)c1`, the figure is 0.65; as for `Cc1ccccc1O[C@@H]1O[C@H](CO)C(O)[C@H](O)[C@H]1O` (stereo in doubt), -0.16; as for `Cc1ccc(C(C)C)c(O[C@@H]2O[C@H](CO)[C@@H](O)[C@H](O)[C@H]2O)c1`, 1.07.
Still for that read-out and setting: to `Cc1cccc(O[C@@H]2O[C@H](CO)[C@@H](O)[C@H](O)[C@H]2O)c1` belongs -0.2; to `OCc1ccccc1O[C@@H]1O[C@H](CO)[C@@H](O)[C@H](O)[C@H]1O`, -1.22; to `COc1cccc(O[C@@H]2O[C@H](CO)[C@@H](O)[C@H](O)[C@H]2O)c1`, -0.52.
Regarding `Cc1ccc(O[C@@H]2O[C@H](CO)[C@@H](O)[C@H](O)[C@H]2O)cc1`, the logP was -0.16.
For the molecule `CC(C)(C)c1cccc(O[C@@H]2O[C@H](CO)[C@@H](O)[C@H](O)[C@H]2O)c1`, the logP was 1.01.
On the same count and under the same terms, as for `OC[C@H]1OC(OCc2ccccc2)[C@H](O)[C@@H](O)[C@@H]1O` (stereo partly specified), the figure is -0.7; as for `CC(C)(C)c1ccc(O[C@@H]2O[C@H](CO)[C@@H](O)[C@H](O)[C@H]2O)cc1`, 1.18; as for `COc1ccccc1O[C@@H]1O[C@H](CO)[C@@H](O)[C@H](O)[C@H]1O`, -1.04.
On the same count and under the same terms, as for `OC[C@H]1O[C@@H](Oc2ccccc2I)[C@H](O)[C@@H](O)[C@@H]1O`, the figure is 0.27; as for `OC[C@H]1O[C@@H](Oc2ccccc2)[C@H](O)[C@@H](O)[C@@H]1O`, -0.71.
